Values joined by “and” are separate entries in the source; they are usually repeats but may differ in a detail not shown here. Identical values can stand only once.
Key:
∆pyr K. oxytoca = experiment: RNA-seq of compound-supplemented ∆pyr K. oxytoca; format: cell-based, Klebsiella oxytoca ATCC 8724; details: 10 µM
Procedure: A ∆pyr K. oxytoca glycerol stock was streaked onto an LB-Agar plate supplemented with spectinomycin (50 µg/mL) and incubated aerobically at 30°C for 24 h in a stationary incubator. Single colonies were grown for 24 h aerobically in 5 mL of M9 minimal medium supplemented with 5 g/L casamino acids and 0.4% D-galactose at 30 °C and 250 rpm. Each ∆pyr K. oxytoca overnight culture was diluted 1:1000 into fresh medium (5 mL) and incubated aerobically at 30 °C and 250 rpm to mid-exponential growth (OD600 = 0.8). These conditions abrogated both detectable pyrazine and pyrazinone production. At this point, 10 µM of compound in DMSO, were added to the cultures; an equal volume of DMSO was added to cultures without compound as a solvent vehicle control. The cultures were incubated under aerobic conditions with the compounds for one hour at 30 °C and at 250 rpm. After incubation, the cultures were centrifuged, the supernatants were decanted, and the cell pellets were quickly resuspended in 5 mL of Bacterial RNAProtect (Qiagen). The samples were centrifuged again, and the pellets were frozen on dry ice and stored at −80 °C until RNA extraction. The processed cell pellets were thawed on ice and resuspended in 200 µL of lysis buffer (10 mM Tris, 1 mM EDTA, 5 mg/mL lysozyme, 12.5 µg/mL proteinase K [pH 8.0]) and incubated at room temperature for 10 min. The RNA was extracted via the Qiagen RNeasy Mini kit, treated with TURBO DNase in a total volume of 100 µL at room temperature for 30 min, and extracted again using an RNeasy Mini kit. RNA-seq analysis was conducted by the Yale Center for Genome Analysis. Sequences were aligned to the K. oxytoca ATCC 8724 genome (NC_016612.1). Differential expression analysis was performed through DESeq2 and pathway enrichment analysis was performed through the Funage-Pro web-based platform.

HRH1 = target: T1, HRH1 (Homo sapiens, UniProt P35367); experiment: PRESTO-Tango GPCR screen and dose-response; format: cell-based; details: for HRH1 dose-response raw reporter signal (Fig. 5b source data): replicate wells
T1 construct: expressed in transfected cells; host or cells: HTLA cells (HEK293 line stably expressing β-arrestin-TEV and tTA-Luciferase)
T1 sequence (P35367 whole entry): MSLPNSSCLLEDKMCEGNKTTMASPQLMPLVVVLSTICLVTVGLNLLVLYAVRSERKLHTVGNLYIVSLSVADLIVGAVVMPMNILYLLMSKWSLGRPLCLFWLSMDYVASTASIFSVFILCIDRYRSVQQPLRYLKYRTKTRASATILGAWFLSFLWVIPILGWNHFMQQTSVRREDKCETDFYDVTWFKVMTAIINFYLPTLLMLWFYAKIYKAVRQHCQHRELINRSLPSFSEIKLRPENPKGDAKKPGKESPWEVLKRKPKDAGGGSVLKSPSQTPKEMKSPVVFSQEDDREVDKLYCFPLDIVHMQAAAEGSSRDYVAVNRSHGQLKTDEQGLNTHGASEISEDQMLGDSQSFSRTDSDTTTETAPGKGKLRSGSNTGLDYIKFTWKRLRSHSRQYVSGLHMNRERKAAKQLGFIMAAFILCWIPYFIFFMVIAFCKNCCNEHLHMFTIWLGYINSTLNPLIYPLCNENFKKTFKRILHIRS
Procedure: (§1) The PRESTO-Tango analyses were performed as previously published. Briefly, HTLA cells, a HEK293 cell line that stably expresses β-arrestin-TEV and tTA-Luciferase (a kind gift from Gilad Barnea, Brown University), were plated in 96-well tissue culture plates (Eppendorf) in DMEM containing 10% FBS and 1% Penicillin/Streptomycin. One day after plating (after reaching approximately 90% confluence), 200 ng per well GPCR-Tango plasmids[37] in 20 μL DMEM were individually mixed with 400 ng polyethylenimine (Polysciences) in an equal volume of DMEM and incubated for 20 min at room temperature before adding the transfection mixture to the HTLA cells. 16-24 h after transfection, medium was replaced with 180 μL fresh DMEM containing 1% Penicillin/Streptomycin and 10 mM HEPES and 20 μL of 3 or 3-Homo to reach a final concentration of 100 μM. Supernatants were aspirated 20 h after stimulation and 50 μl per well of Bright-Glo solution (Promega) diluted 20-fold with PBS containing 20 mM HEPES was added into each well. After 15 min incubation at room temperature, luminescence was quantified using a Spectramax i3x microplate reader (Molecular Devices). Activation fold for each sample was calculated by dividing relative luminescence units (RLU) for each condition by RLUs from PBS control. Dose response curves of each chemical were performed in a similar way with varying the ligand concentration from 10^−4 M to 10^−15 M.

HRH2 = target: T2, HRH2 (Homo sapiens, UniProt P25021); experiment: PRESTO-Tango GPCR screen and dose-response; format: cell-based; details: for HRH2 dose-response raw reporter signal (Fig. 5b source data): replicate wells
T2 construct: expressed in transfected cells; host or cells: HTLA cells (HEK293 line stably expressing β-arrestin-TEV and tTA-Luciferase)
T2 sequence (P25021 whole entry): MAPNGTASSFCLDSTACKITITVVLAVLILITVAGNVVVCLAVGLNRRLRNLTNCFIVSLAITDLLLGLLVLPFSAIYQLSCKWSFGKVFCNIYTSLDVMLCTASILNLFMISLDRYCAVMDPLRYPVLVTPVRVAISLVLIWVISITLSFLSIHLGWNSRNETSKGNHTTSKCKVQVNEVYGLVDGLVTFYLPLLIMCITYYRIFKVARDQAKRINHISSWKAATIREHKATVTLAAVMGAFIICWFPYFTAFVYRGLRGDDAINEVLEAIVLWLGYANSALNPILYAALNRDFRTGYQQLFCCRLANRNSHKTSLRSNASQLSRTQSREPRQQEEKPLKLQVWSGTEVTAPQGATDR
Procedure: as §1

HRH3 = target: T3, HRH3 (Homo sapiens, UniProt Q9Y5N1); experiment: PRESTO-Tango GPCR screen and dose-response; format: cell-based; details: for HRH3 dose-response raw reporter signal (Fig. 5b source data): replicate wells
T3 construct: expressed in transfected cells; host or cells: HTLA cells (HEK293 line stably expressing β-arrestin-TEV and tTA-Luciferase)
T3 sequence (Q9Y5N1 whole entry): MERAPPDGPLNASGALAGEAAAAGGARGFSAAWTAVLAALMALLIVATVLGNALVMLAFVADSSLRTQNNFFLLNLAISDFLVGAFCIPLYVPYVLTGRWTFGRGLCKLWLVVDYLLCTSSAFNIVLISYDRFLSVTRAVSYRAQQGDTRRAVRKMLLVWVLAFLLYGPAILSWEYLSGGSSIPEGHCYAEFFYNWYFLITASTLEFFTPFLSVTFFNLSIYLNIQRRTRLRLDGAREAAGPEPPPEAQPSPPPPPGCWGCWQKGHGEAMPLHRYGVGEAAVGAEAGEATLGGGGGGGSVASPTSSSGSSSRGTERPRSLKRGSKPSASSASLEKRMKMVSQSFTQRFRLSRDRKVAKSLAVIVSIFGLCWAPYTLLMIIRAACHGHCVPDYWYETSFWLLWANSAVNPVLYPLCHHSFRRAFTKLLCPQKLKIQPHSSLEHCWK
Procedure: as §1

[1] = target: T4, histamine receptor H4 (HRH4) (Homo sapiens, UniProt Q9H3N8); experiment: PRESTO-Tango GPCR screen and dose-response; format: cell-based; details: for HRH4 dose-response raw reporter signal (Fig. 5b source data): replicate wells
T4 construct: expressed in transfected cells; host or cells: HTLA cells (HEK293 line stably expressing β-arrestin-TEV and tTA-Luciferase)
T4 sequence (Q9H3N8 whole entry): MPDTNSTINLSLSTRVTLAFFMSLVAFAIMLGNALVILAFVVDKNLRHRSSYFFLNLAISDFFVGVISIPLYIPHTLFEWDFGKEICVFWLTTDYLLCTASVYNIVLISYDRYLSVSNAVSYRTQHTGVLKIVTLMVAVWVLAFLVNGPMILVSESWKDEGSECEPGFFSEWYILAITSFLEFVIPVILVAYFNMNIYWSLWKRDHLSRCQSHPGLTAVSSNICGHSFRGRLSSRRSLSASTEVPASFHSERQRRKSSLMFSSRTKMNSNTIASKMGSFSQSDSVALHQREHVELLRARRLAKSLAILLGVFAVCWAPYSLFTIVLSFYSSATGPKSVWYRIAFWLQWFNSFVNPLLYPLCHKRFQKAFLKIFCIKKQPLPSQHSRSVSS
Procedure: as §1

SMILES: O=C(O)CCc1nc(Cc2ccc(O)cc2)c(CCC(=O)O)nc1Cc1ccc(O)cc1 [compound 6]
- number of differentially regulated genes (∆pyr K. oxytoca; one hour, vs DMSO, Padj < 0.05, abs(log2FC) > 1): 201 genes
- effect on enterobactin BGC transcription (∆pyr K. oxytoca; vs DMSO control, RNA-seq): increased enterobactin transcription levels
- HRH1 dose-response raw reporter signal (Fig. 5b source data) (HRH1; Log(10)Conc (M) -4): 49886 and 44465
- HRH1 dose-response raw reporter signal (Fig. 5b source data) (HRH1; Log(10)Conc (M) -5): 46746 and 44008
- HRH1 dose-response raw reporter signal (Fig. 5b source data) (HRH1; Log(10)Conc (M) -6): 46048 and 46004
- HRH1 dose-response raw reporter signal (Fig. 5b source data) (HRH1; Log(10)Conc (M) -7): 45284 and 44521
- HRH1 dose-response raw reporter signal (Fig. 5b source data) (HRH1; Log(10)Conc (M) -8): 43675 and 43707
- HRH1 dose-response raw reporter signal (Fig. 5b source data) (HRH1; Log(10)Conc (M) -9): 43412 and 43896
- HRH1 dose-response raw reporter signal (Fig. 5b source data) (HRH1; Log(10)Conc (M) -10): 42790 and 43339
- HRH1 dose-response raw reporter signal (Fig. 5b source data) (HRH1; Log(10)Conc (M) -11): 45349 and 45281
- HRH1 dose-response raw reporter signal (Fig. 5b source data) (HRH1; Log(10)Conc (M) -12): 45812 and 46139
- HRH1 dose-response raw reporter signal (Fig. 5b source data) (HRH1; Log(10)Conc (M) -13): 46567 and 45803
- HRH1 dose-response raw reporter signal (Fig. 5b source data) (HRH1; Log(10)Conc (M) -14): 45579 and 46637
- HRH1 dose-response raw reporter signal (Fig. 5b source data) (HRH1; Log(10)Conc (M) -15): 40874 and 41360
- activity towards HRH1 (HRH1; PRESTO-Tango dose-response): no activity
- HRH2 dose-response raw reporter signal (Fig. 5b source data) (HRH2; Log(10)Conc (M) -4): 68 and 65 and 32
- HRH2 dose-response raw reporter signal (Fig. 5b source data) (HRH2; Log(10)Conc (M) -5): 50 and 41 and 77
- HRH2 dose-response raw reporter signal (Fig. 5b source data) (HRH2; Log(10)Conc (M) -6): 59 and 62 and 44
- HRH2 dose-response raw reporter signal (Fig. 5b source data) (HRH2; Log(10)Conc (M) -7): 27 and 50 and 35
- HRH2 dose-response raw reporter signal (Fig. 5b source data) (HRH2; Log(10)Conc (M) -8): 65 and 80 and 47
- HRH2 dose-response raw reporter signal (Fig. 5b source data) (HRH2; Log(10)Conc (M) -9): 38 and 97 and 71
- HRH2 dose-response raw reporter signal (Fig. 5b source data) (HRH2; Log(10)Conc (M) -10): 50 (2×) and 62
- HRH2 dose-response raw reporter signal (Fig. 5b source data) (HRH2; Log(10)Conc (M) -11): 56 and 27 and 53
- HRH2 dose-response raw reporter signal (Fig. 5b source data) (HRH2; Log(10)Conc (M) -12): 53 and 35 and 24
- HRH2 dose-response raw reporter signal (Fig. 5b source data) (HRH2; Log(10)Conc (M) -13): 59 and 53 and 35
- HRH2 dose-response raw reporter signal (Fig. 5b source data) (HRH2; Log(10)Conc (M) -14): 71 and 53 (2×)
- HRH2 dose-response raw reporter signal (Fig. 5b source data) (HRH2; Log(10)Conc (M) -15): 29 and 15 and 32
- activity towards HRH2 (HRH2; PRESTO-Tango dose-response): no activity
- HRH3 dose-response raw reporter signal (Fig. 5b source data) (HRH3; Log(10)Conc (M) -4): 162 and 59 and 171
- HRH3 dose-response raw reporter signal (Fig. 5b source data) (HRH3; Log(10)Conc (M) -5): 94 and 85 and 156
- HRH3 dose-response raw reporter signal (Fig. 5b source data) (HRH3; Log(10)Conc (M) -6): 136 and 91 and 133
- HRH3 dose-response raw reporter signal (Fig. 5b source data) (HRH3; Log(10)Conc (M) -7): 124 and 91 and 106
- HRH3 dose-response raw reporter signal (Fig. 5b source data) (HRH3; Log(10)Conc (M) -8): 133 and 85 and 109
- HRH3 dose-response raw reporter signal (Fig. 5b source data) (HRH3; Log(10)Conc (M) -9): 165 and 142 and 209
- HRH3 dose-response raw reporter signal (Fig. 5b source data) (HRH3; Log(10)Conc (M) -10): 200 and 100 and 109
- HRH3 dose-response raw reporter signal (Fig. 5b source data) (HRH3; Log(10)Conc (M) -11): 133 and 100 and 147
- HRH3 dose-response raw reporter signal (Fig. 5b source data) (HRH3; Log(10)Conc (M) -12): 115 (2×) and 142
- HRH3 dose-response raw reporter signal (Fig. 5b source data) (HRH3; Log(10)Conc (M) -13): 139 and 91 and 133
- HRH3 dose-response raw reporter signal (Fig. 5b source data) (HRH3; Log(10)Conc (M) -14): 127 and 83 and 121
- HRH3 dose-response raw reporter signal (Fig. 5b source data) (HRH3; Log(10)Conc (M) -15): 112 and 91 and 62
- activity towards HRH3 (HRH3; PRESTO-Tango dose-response): no activity
- HRH4 dose-response raw reporter signal (Fig. 5b source data) ([1]; Log(10)Conc (M) -5): 295 and 312
- HRH4 dose-response raw reporter signal (Fig. 5b source data) ([1]; Log(10)Conc (M) -6): 348 and 448
- HRH4 dose-response raw reporter signal (Fig. 5b source data) ([1]; Log(10)Conc (M) -7): 304 and 348
- HRH4 dose-response raw reporter signal (Fig. 5b source data) ([1]; Log(10)Conc (M) -8): 271 and 366
- HRH4 dose-response raw reporter signal (Fig. 5b source data) ([1]; Log(10)Conc (M) -9): 318 and 324
- HRH4 dose-response raw reporter signal (Fig. 5b source data) ([1]; Log(10)Conc (M) -10): 271 and 230
- HRH4 dose-response raw reporter signal (Fig. 5b source data) ([1]; Log(10)Conc (M) -11): 342 and 265
- HRH4 dose-response raw reporter signal (Fig. 5b source data) ([1]; Log(10)Conc (M) -12): 298 and 248
- HRH4 dose-response raw reporter signal (Fig. 5b source data) ([1]; Log(10)Conc (M) -13): 318 and 271
- HRH4 dose-response raw reporter signal (Fig. 5b source data) ([1]; Log(10)Conc (M) -14): 374 and 307
- HRH4 dose-response raw reporter signal (Fig. 5b source data) ([1]; Log(10)Conc (M) -15): 242 and 254
- activity towards HRH4 ([1]; PRESTO-Tango dose-response): no activity

Reference: article PMC11480411, “Mucosal sugars delineate pyrazine vs pyrazinone autoinducer signaling in Klebsiella oxytoca” (Nature Communications, 2024)
